Each structure is given as a SMILES string. Where only a bound is given, the exact number is not on record here.

The first data set concerns Leptosphaeria nodorum. Put plainly: Leptosphaeria nodorum test (wheat) / protective. It counts as in vivo. Particulars: Parastagonospora nodorum, active compound concentration 500 ppm, evaluation 7-9 days after inoculation, read-out: efficacy. How it is done: Thereafter, the plants are placed in a greenhouse at 90% relative atmospheric humidity and a temperature of 22° C.
In the case of `CSC(C)c1cccc(Nc2ncc(C(F)(F)F)c(NC3CCCC3)n2)c1` (stereo not shown) [Example 16], the pest or weed control at 500 ppm was no less than 70%.
On the same count and under the same terms, the value for `COC(C)c1cccc(Nc2ncc(C(F)(F)F)c(NC3CCCC3)n2)c1` (stereo not shown) [Example 17] was no less than 70%; that for `CCSC(C)c1cccc(Nc2ncc(C(F)(F)F)c(NC3CCCC3)n2)c1` (stereo not shown) [Example 37] was no less than 70%; that for `Clc1cnc(Nc2cccc(COc3ccccc3)c2)nc1NC1CC1` [Example 50] was no less than 70%.
The same measure, in the same setting: the value for `COCCOc1ccc(Nc2ncc(Cl)c(NC3CC3)n2)cc1Cl` [Example 68] was no less than 70%.
With `COCc1cccc(Nc2ncc(Cl)c(NCC(C)(C)C)n2)c1` [Example 142], the pest or weed control at 500 ppm was no less than 70%.
The same measure, in the same setting: the value for `CCC(CC)Nc1nc(Nc2cccc(COC)c2)ncc1Cl` [Example 144] was no less than 70%; that for `CCCS(=O)(=O)c1cccc(Nc2ncc(Br)c(NC3CCC3)n2)c1` [Example 159] was no less than 70%.

System in another data set: not listed separately
Put plainly: logP by LC-MS on reversed-phase columns (C 18), method [b], acidic range pH 2.7. It counts as physicochemical. The conditions noted are these: method [b], LC-MS, acidic range pH 2.7. As for the experimental part: (§1) The logP values were determined in accordance with EEC Directive 79/831 Annex V.A8 by HPLC (High Performance Liquid Chromatography) on reversed-phase columns (C 18), using the methods below:
[b] The LC-MS determination in the acidic range is carried out at pH 2.7 using the mobile phases 0.1% aqueous formic acid and acetonitrile (contains 0.1% formic acid), linear gradient from 10% acetonitrile to 95% acetonitrile.
On to `CCOCCOc1cc(Nc2ncc(Cl)c(NC3CC3)n2)ccc1C` [Example 48], for which the log p was 2.23[b].
Same read-out and setting: the value for `O=S(=O)(CCCl)c1cc(Nc2ncc(Cl)c(NC3CC3)n2)ccc1Cl` [Example 49] was 2.67[b].
Still for that read-out and setting: the value for `CCSC(C)c1cccc(Nc2ncc(Cl)c(NC3CC3CC)n2)c1` (stereo not shown) [Example 196] was 3.99[b].
As to `CCC1CC1Nc1nc(Nc2cccc(C(C)OC)c2)ncc1Cl` (stereo not shown) [Example 197], the log p was 2.76[b].
Same read-out and setting: the value for `COCc1cccc(Nc2ncc(Br)c(NC3CC(C)C3)n2)c1` (stereo not shown) [Example 200] was 2.55[b].
The same measure, in the same setting: the figure for `COC(C)c1cccc(Nc2ncc(Br)c(NC3CC(C)C3)n2)c1` (stereo not shown) [Example 212] is 2.84[b].

Staying with this data set, now noted: pH 2.7.
As for `COCCOCCOc1ccc(Nc2ncc(Br)c(NC3CC3)n2)cc1` [Example 2], the log p is 1.69[b].
Same read-out and setting: the value for `C=C(C)CSc1cccc(Nc2ncc(Br)c(NC3CC3)n2)c1` [Example 3] was 4.25[b]; that for `COCC(C)Oc1ccc(Nc2ncc(Br)c(NC3CC3)n2)cc1Cl` (stereo not shown) [Example 4] was 2.75[b].
The same measure, in the same setting: the figure for `COC(c1cccc(Nc2ncc(Br)c(NC3CCC3)n2)c1)C(F)(F)F` (stereo not shown) [Example 10] is 3[b]; for `CCSC(C)c1cccc(Nc2ncc(Cl)c(NC3CCC3)n2)c1` (stereo not shown) [Example 11] it is 3.25[b]; for `COC(c1cccc(Nc2ncc(Cl)c(NC3CCC3)n2)c1)C(F)(F)F` (stereo not shown) [Example 21] it is 2.99[b].
Still for that read-out and setting: the value for `COC(c1cccc(Nc2ncc(Cl)c(NCC(F)F)n2)c1)C(F)(F)F` (stereo not shown) [Example 23] was 2.93[b].
With `CCSC(C)c1cccc(Nc2ncc(C(F)(F)F)c(NC3CCC3)n2)c1` (stereo not shown) [Example 36], the log p was 4.75[b].
On the same count and under the same terms, the value for `C=C(C)CSc1cccc(Nc2ncc(Cl)c(NC3CC3)n2)c1` [Example 38] was 3.59[b].
Same read-out and setting: the value for `CCS(=O)(=O)C(C)c1cccc(Nc2ncc(C(F)(F)F)c(NC3CCCC3)n2)c1` (stereo not shown) [Example 39] was 3.27[b]; that for `CCS(=O)(=O)C(C)c1cccc(Nc2ncc(C(F)(F)F)c(NCC3CC3)n2)c1` (stereo not shown) [Example 41] was 2.65[b]; that for `CC[S+]([O-])C(C)c1cccc(Nc2ncc(C(F)(F)F)c(NC3CCCC3)n2)c1` (stereo not shown) [Example 42] was 2.87[b].
Same read-out and setting: the figure for `CC[S+]([O-])C(C)c1cccc(Nc2ncc(C(F)(F)F)c(NCC3CC3)n2)c1` (stereo not shown) [Example 44] is 2.3[b]; for `CCS(=O)(=O)C(C)c1cccc(Nc2ncc(C(F)(F)F)c(NC3CC3)n2)c1` (stereo not shown) [Example 46] it is 2.49[b]; for `COCc1cc(COC)cc(Nc2ncc(Cl)c(NC3CCC3)n2)c1` [Example 47] it is 2.06[b].
In the case of `CCS(=O)(=O)c1ccc(Nc2ncc(C(F)(F)F)c(NC3CC3)n2)cc1` [Example 55], the log p was 2.66[b].
On the same count and under the same terms, the value for `COCc1cccc(Nc2ncc(Cl)c(N(C)CCCN3CCCCCC3=O)n2)c1` [Example 69] was 1.91[b]; that for `COCC(C)Oc1ccc(Nc2ncc(Cl)c(NC3CC3)n2)cc1C(F)(F)F` (stereo not shown) [Example 72] was 2.91[b]; that for `Fc1cccc(Nc2ncc(Cl)c(NC3CC3)n2)c1` [Example 86] was 1.87[b].
On the same count and under the same terms, the figure for `CCCN(c1nc(Nc2cccc(COC)c2)ncc1Cl)C1CC1` [Example 136] is 3.68[b]; for `COCc1cccc(Nc2ncc(Cl)c(N3CCCCCC3)n2)c1` [Example 139] it is 2.88[b]; for `CCS(=O)(=O)C(C)c1cccc(Nc2ncc(Br)c(NC3CCC3)n2)c1` (stereo not shown) [Example 153] it is 2.03[b].
Same read-out and setting: the figure for `COCCOCCOc1ccc(Nc2ncc(C(F)(F)F)c(NC3CC3)n2)cc1Cl` [Example 156] is 3.2[b]; for `CCCC(C)S(=O)(=O)C(C)c1cccc(Nc2ncc(C(F)(F)F)c(NC3CC3)n2)c1` (stereo not shown) [Example 168] it is 3.47[b].
For `COCCOCCOc1ccc(Nc2ncc(Cl)c(NC3CC3)n2)cc1Cl` [Example 173], the log p was 2.12[b].
Same read-out and setting: the value for `COCc1cccc(Nc2ncc(Cl)c(NC3CC3C(F)(F)F)n2)c1` (stereo not shown) [Example 208] was 2.64[b]; that for `COCCOc1cccc(Nc2ncc(Cl)c(NC3CC3C(F)(F)F)n2)c1` (stereo not shown) [Example 210] was 2.66[b].
On the same count and under the same terms, the figure for `COCC(C)Oc1ccc(Nc2ncc(Br)c(NC3CC(C)C3)n2)cc1` (stereo not shown) [Example 213] is 2.27[b].
Same read-out and setting: the figure for `CCSC(C)c1cccc(Nc2ncc(Br)c(NC3CC(C)C3)n2)c1` (stereo not shown) [Example 214] is 3.85[b]; for `COCC(C)Oc1ccc(Nc2ncc(Cl)c(NC3CC3C(F)(F)F)n2)cc1` (stereo not shown) [Example 221] it is 2.48[b]; for `CS(=O)(=O)Cc1cccc(Nc2ncc(Cl)c(NC3CC3C(F)(F)F)n2)c1` (stereo not shown) [Example 222] it is 1.96[b].
With `CCSC(C)c1cccc(Nc2ncc(Cl)c(NC3CC3C(F)(F)F)n2)c1` (stereo not shown) [Example 223], the log p was 3.93[b].
Take `FC(F)(F)COCc1cccc(Nc2ncc(Cl)c(NC3CC3)n2)c1` [Example 224]: the log p was 2.56[b].
Consider `FC(F)(F)c1cnc(Nc2cccc(COc3ccc4c(c3)OCO4)c2)nc1NC1CC1` [Example 227], for which the log p is 3.9[b].
For `FC(F)C(F)(F)COCc1cccc(Nc2ncc(C(F)(F)F)c(NC3CC3)n2)c1` [Example 231], the log p was 3.7[b].
For the molecule `FC(F)C(F)(F)COCc1cccc(Nc2ncc(Cl)c(NC3CC3)n2)c1` [Example 232], the log p was 2.69[b].
On the same count and under the same terms, the value for `CCOCCOCc1cccc(Nc2ncc(Cl)c(NC3CC3)n2)c1` [Example 252] was 2.51[b]; that for `CCOCCOCc1cccc(Nc2ncc(C(F)(F)F)c(NC3CC3)n2)c1` [Example 253] was 2.73[b].

Still in this data set, the particulars now being: pH 2.7, log p.
For `CSC(C)c1cccc(Nc2ncc(C(F)(F)F)c(NC3CCCC3)n2)c1` (stereo not shown) [Example 16], the chromatographic logP was 4.48.
Molecule `COC(C)c1cccc(Nc2ncc(C(F)(F)F)c(NC3CCCC3)n2)c1` (stereo not shown) [Example 17] had a chromatographic logP of 4.13.
As for `CCSC(C)c1cccc(Nc2ncc(C(F)(F)F)c(NC3CCCC3)n2)c1` (stereo not shown) [Example 37], the chromatographic logP is 5.2.
Still for that read-out and setting: the figure for `Clc1cnc(Nc2cccc(COc3ccccc3)c2)nc1NC1CC1` [Example 50] is 2.92; for `CCS(=O)(=O)c1ccc(Nc2ncc(Cl)c(NC3CC3)n2)cc1` [Example 54] it is 2.04; for `COCCOc1ccc(Nc2ncc(Cl)c(NC3CC3)n2)cc1Cl` [Example 68] it is 2.12.
`CCN(c1nc(Nc2cccc(COC)c2)ncc1Cl)C(C)C` [Example 140] showed a chromatographic logP of 3.
On to `CCCN(C)c1nc(Nc2cccc(COC)c2)ncc1Cl` [Example 141], for which the chromatographic logP was determined as 2.55.
Regarding `COCc1cccc(Nc2ncc(Cl)c(NCC(C)(C)C)n2)c1` [Example 142], the chromatographic logP worked out at 2.48.
On the same count and under the same terms, the value for `CCCC(C)Nc1nc(Nc2cccc(COC)c2)ncc1Cl` (stereo not shown) [Example 143] was 2.41; that for `CCC(CC)Nc1nc(Nc2cccc(COC)c2)ncc1Cl` [Example 144] was 2.3.
The same measure, in the same setting: the value for `CCC(C)CNc1nc(Nc2cccc(COC)c2)ncc1Cl` (stereo not shown) [Example 145] was 2.37; that for `COCc1cccc(Nc2ncc(Cl)c(NCCC(C)C)n2)c1` [Example 146] was 2.37.
The same measure, in the same setting: the value for `CCCCCNc1nc(Nc2cccc(COC)c2)ncc1Cl` [Example 147] was 2.41; that for `COCCOc1ccc(Nc2ncc(C(F)(F)F)c(NC3CC3)n2)cc1C` [Example 157] was 2.14; that for `CCCS(=O)(=O)c1cccc(Nc2ncc(Br)c(NC3CCC3)n2)c1` [Example 159] was 2.81.
Molecule `COCCOc1ccc(Nc2ncc(Cl)c(NC3CC3)n2)cc1C` [Example 174] registered a chromatographic logP of 1.43.
Still for that read-out and setting: the figure for `CCOCCOc1ccc(Nc2ncc(C(F)(F)F)c(NC3CC3)n2)cc1Cl` [Example 184] is 3.72; for `CCOCCOc1ccc(Nc2ncc(C(F)(F)F)c(NC3CC3)n2)cc1C(F)(F)F` [Example 186] it is 4.09.
On the same count and under the same terms, the figure for `FC(F)(F)OCCOc1cccc(Nc2ncc(Cl)c(NC3CC3)n2)c1` [Example 241] is 2.72; for `CCOCCOCc1cccc(Nc2ncc(Cl)c(NC3CC3)n2)c1` [Example 248] it is 2.03; for `CCOCCOCc1cccc(Nc2ncc(C(F)(F)F)c(NC3CC3)n2)c1` [Example 250] it is 3.17.

System in the next data set: not listed separately
Put plainly: logP by LC-MS on reversed-phase columns (C 18), method [c], neutral range pH 7.8. The format is physicochemical. Particulars: pH 7.8. As for the experimental part: as §1
[c] The LC-MS determination in the neutral range is carried out at pH 7.8 using the mobile phases 0.001 molar aqueous ammonium bicarbonate solution and acetonitrile, linear gradient from 10% acetonitrile to 95% acetonitrile.
`COCc1cccc(Nc2ncc(Cl)c(N3CCCC3)n2)c1` [Example 87]: the log p is 3.83[c];.
As to `COCCOC(c1cccc(Nc2ncc(C(F)(F)F)c(NCC3CC3)n2)c1)C(F)(F)F` (stereo not shown) [Example 220], the log p is 4.2[c].
Consider `Clc1cnc(Nc2cccc(COc3ccc4c(c3)OCO4)c2)nc1NC1CC1` [Example 230], for which the log p was 3.87[c].
The same measure, in the same setting: the figure for `CCOC(CSc1cccc(Nc2ncc(C(F)(F)F)c(NC3CC3)n2)c1)OCC` [Example 236] is 4.55[c]; for `COC(COCc1cccc(Nc2ncc(C(F)(F)F)c(NC3CC3)n2)c1)OC` [Example 237] it is 3.37[c].

For orientation: chromatographic logP means lipophilicity estimated from chromatographic retention. A higher chromatographic logP goes with a more lipophilic compound.
